{
  "source": "ChEMBL document CHEMBL1201862",
  "about": "“PubChem BioAssay data set” (2004)",
  "key": {"[1]": {"test": "inhibitors of intracellular T. cruzi replication, confirmation, NIH3T3 host cells, beta-gal luminescence (AID 2044);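 also: luminescent beta-galactosidase reporter signal from transgenic T. cruzi replicating inside host cells; inhibitors lower the luminescence signal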", "type": "functional, cell-based"}, "Paired box protein Pax-8": {"target": "Paired box protein Pax-8 (Homo sapiens, UniProt Q06710)", "sequence (Q06710 whole entry)": "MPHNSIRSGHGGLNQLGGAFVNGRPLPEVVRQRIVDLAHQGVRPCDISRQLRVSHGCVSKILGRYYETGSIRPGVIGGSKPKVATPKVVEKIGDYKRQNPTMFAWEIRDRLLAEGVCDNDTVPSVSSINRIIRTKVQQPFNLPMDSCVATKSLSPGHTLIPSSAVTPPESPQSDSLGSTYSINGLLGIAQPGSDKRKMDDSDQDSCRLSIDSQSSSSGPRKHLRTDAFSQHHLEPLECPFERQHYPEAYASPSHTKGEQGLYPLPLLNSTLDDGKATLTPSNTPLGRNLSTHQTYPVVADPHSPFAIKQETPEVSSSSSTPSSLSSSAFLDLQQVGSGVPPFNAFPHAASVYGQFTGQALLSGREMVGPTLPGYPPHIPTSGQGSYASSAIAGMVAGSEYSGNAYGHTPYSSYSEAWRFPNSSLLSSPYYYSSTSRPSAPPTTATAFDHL", "test": "inhibitors of PAX8-driven TPO luciferase reporter, dose response, RMG-I cells, cherry-pick (AID 687027);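 also: luciferase reporter driven by Pax8 target thyroperoxidase promoter measured by SteadyGlo luminescence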", "type": "functional, cell-based"}, "Beta-galactosidase": {"target": "Beta-galactosidase (Escherichia coli, UniProt Q8VNN2)", "sequence (Q8VNN2 whole entry)": "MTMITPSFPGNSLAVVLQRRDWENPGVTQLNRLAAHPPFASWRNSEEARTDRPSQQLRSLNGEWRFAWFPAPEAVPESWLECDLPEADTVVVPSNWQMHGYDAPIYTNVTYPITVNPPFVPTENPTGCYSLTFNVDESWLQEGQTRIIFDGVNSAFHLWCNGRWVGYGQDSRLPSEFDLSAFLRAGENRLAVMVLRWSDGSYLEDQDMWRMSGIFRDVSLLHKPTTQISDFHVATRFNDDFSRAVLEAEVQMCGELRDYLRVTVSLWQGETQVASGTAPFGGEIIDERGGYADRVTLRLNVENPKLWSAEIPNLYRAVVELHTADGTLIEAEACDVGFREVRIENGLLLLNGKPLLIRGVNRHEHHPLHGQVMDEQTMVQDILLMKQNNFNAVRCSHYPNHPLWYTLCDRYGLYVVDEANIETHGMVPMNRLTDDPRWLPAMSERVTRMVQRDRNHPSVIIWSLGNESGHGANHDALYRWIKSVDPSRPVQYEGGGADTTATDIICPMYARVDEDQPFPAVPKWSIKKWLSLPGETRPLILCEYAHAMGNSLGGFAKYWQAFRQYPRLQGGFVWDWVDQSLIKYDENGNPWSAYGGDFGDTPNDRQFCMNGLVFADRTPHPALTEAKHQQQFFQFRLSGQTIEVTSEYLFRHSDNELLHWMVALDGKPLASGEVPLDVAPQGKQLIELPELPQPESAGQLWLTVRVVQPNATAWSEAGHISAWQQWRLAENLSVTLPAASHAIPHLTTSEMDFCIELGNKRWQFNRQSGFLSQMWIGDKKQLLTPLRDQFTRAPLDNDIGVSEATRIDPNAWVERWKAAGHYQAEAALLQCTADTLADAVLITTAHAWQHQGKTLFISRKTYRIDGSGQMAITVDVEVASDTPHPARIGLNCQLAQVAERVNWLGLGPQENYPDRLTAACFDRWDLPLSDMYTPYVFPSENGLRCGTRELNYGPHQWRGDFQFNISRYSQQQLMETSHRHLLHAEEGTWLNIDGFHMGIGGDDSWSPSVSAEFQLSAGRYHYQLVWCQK", "test": "PubChem AID 485352", "type": "functional"}, "[2]": {"target": "T1, Type-1 angiotensin II receptor (Homo sapiens, UniProt P30556)", "T1 sequence (P30556 whole entry)": "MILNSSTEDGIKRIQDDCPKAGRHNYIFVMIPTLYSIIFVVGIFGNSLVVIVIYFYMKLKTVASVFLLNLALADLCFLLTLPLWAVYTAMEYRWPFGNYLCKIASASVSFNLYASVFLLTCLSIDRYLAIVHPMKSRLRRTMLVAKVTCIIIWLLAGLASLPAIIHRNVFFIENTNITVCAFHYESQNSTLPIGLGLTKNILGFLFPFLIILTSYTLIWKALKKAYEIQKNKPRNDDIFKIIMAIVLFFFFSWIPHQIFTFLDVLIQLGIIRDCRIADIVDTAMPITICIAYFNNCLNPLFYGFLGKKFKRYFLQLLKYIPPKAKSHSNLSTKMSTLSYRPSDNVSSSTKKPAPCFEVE", "test": "AT1 receptor antagonists, dose response, selectivity assay for APJ receptor antagonist project, cell-based, uHTS hits (AID 463214);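 also: antagonist potency against angiotensin II stimulated AT1 response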", "type": "functional"}, "Large T antigen": {"target": "Large T antigen (Simian virus 40, UniProt P03070)", "sequence (P03070 whole entry)": "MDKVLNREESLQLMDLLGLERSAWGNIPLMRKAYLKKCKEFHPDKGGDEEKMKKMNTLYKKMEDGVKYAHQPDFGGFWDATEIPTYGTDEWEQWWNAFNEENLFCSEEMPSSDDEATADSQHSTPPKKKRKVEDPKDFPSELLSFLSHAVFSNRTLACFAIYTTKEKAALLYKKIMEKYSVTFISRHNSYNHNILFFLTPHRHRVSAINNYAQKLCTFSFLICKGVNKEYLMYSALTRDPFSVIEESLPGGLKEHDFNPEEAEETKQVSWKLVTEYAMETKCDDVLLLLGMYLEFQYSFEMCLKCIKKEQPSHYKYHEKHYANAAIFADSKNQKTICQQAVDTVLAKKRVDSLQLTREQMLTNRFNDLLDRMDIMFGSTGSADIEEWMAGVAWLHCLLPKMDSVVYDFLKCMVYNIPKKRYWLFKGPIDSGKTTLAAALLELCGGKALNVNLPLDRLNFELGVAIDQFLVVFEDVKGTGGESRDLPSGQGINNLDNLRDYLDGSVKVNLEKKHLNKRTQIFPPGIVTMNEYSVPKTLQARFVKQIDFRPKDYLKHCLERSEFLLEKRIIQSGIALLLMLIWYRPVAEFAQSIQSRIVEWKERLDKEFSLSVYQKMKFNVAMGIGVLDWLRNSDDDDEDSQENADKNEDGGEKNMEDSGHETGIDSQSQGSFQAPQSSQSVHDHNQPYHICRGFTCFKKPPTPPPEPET", "type": "functional, Betapolyomavirus macacae"}, "[3]": {"test": "cytotoxicity toward NIH3T3 fibroblasts, dose response, counter-screen, cell-based, ATP luminescence, mouse fibroblasts (AID 2010);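 also: cells exposed to compound for about 90 hours before reading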", "type": "functional"}, "[4]": {"test": "HepG2 cell cytotoxicity, dose response, cytotoxicity control for Shn3 inhibitor project, CellTiter-Glo, cherry-picked (AID 624134)", "type": "functional, cell-based"}, "[5]": {"test": "control 3'UTR Renilla luciferase suppression, dose response, counter-screen for Shn3 inhibitor project, cell-based, Clone20-Shn3RL, cherry-picked (AID 624133)", "type": "functional"}, "[6]": {"test": "Shn3 3'UTR reporter inhibitors, dose response, cell-based, Clone20 osteoblasts, firefly luciferase, cherry-picked (AID 624132)", "type": "functional"}, "[7]": {"test": "nonselective inhibitors of cellular cAMP signaling, dose response, counter-screen for MC4R biased antagonist project, cell-based, TR-FRET cAMP detection (AID 602305);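 also: U2OS cells stimulated with forskolin near its EC80 as the cAMP inducer; potency is for inhibition of forskolin-stimulated cAMP signaling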", "type": "functional"}, "INS1": {"test_system": "INS1", "test": "beta cell apoptosis inhibitors, cytokine rescue, dose response, luminescence, retest (AID 449756);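 also: cell death triggered by IL-1 beta plus TNF-alpha plus IFN-gamma mixture; protective hits raise ATP signal compared with cytokine alone wells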", "type": "functional, cell-based", "conditions": "Rattus norvegicus"}, "Melanocortin receptor 4": {"target": "Melanocortin receptor 4 (Homo sapiens, UniProt P32245)", "sequence (P32245 whole entry)": "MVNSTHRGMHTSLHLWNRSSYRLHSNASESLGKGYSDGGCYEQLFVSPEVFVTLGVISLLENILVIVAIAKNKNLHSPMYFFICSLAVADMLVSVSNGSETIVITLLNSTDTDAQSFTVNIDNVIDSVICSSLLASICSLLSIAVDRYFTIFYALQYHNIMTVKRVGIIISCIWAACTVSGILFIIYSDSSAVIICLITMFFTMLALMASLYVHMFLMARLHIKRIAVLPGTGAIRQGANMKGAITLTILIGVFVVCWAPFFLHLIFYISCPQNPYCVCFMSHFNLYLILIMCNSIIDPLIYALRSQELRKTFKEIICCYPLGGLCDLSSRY", "test": "MC4R antagonist potency on cAMP, dose response, cell-based, TR-FRET, biased antagonists (AID 602298);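 also: antagonist potency against agonist-stimulated cAMP production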", "type": "functional"}, "[8]": {"target": "Dual specificity protein phosphatase 3 (Homo sapiens, UniProt P51452)", "sequence (P51452 whole entry)": "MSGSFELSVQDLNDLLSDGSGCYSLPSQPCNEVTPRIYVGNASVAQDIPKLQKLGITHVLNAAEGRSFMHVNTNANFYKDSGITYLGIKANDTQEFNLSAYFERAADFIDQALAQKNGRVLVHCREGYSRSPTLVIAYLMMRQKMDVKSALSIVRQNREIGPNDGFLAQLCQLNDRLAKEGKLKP", "test": "VHR phosphatase inhibition, dose response, selectivity assay for STEP inhibitor project, biochemical (AID 602374)", "type": "functional", "conditions": "read-out: IC50_Mean"}, "[9]": {"target": "Tyrosine-protein phosphatase non-receptor type 5 (Homo sapiens, UniProt P54829)", "sequence (P54829 whole entry)": "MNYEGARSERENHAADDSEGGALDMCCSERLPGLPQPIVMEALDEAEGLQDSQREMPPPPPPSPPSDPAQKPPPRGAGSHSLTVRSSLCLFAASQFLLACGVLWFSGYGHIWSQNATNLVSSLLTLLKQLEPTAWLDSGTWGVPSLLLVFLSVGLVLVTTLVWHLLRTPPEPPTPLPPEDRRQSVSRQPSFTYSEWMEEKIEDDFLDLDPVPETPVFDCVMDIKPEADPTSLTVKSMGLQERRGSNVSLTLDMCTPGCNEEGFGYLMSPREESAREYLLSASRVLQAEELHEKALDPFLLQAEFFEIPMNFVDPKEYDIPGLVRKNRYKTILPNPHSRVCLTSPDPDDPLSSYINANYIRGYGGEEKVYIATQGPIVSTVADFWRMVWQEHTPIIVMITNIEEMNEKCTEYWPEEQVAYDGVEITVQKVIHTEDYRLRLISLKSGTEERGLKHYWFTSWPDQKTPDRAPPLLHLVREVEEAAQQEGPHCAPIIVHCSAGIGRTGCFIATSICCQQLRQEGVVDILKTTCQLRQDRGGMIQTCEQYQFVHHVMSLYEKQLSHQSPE", "test": "STEP phosphatase inhibitors, confirmation, biochemical, fluorescence intensity, uHTS hits (AID 602372)", "type": "functional", "conditions": "read-out: IC50_Mean"}, "Caspase-6": {"target": "T2, Caspase-6 (Homo sapiens, UniProt P55212)", "T2 sequence (P55212 whole entry)": "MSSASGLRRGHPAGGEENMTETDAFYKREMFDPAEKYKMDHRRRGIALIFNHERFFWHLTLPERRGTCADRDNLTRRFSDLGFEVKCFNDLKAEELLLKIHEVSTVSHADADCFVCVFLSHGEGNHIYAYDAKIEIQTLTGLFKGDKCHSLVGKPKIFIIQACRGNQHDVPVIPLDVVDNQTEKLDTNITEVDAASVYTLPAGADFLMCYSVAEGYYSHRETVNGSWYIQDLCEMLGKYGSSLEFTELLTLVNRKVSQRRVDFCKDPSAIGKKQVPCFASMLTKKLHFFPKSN", "test": "human caspase-6 inhibitors, dose response, biochemical, VEID-R110 fluorescence, cherry-pick (AID 720632)"}, "[10]": {"target": "Tyrosine-protein phosphatase non-receptor type 11 (Homo sapiens, UniProt Q06124)", "sequence (Q06124 whole entry)": "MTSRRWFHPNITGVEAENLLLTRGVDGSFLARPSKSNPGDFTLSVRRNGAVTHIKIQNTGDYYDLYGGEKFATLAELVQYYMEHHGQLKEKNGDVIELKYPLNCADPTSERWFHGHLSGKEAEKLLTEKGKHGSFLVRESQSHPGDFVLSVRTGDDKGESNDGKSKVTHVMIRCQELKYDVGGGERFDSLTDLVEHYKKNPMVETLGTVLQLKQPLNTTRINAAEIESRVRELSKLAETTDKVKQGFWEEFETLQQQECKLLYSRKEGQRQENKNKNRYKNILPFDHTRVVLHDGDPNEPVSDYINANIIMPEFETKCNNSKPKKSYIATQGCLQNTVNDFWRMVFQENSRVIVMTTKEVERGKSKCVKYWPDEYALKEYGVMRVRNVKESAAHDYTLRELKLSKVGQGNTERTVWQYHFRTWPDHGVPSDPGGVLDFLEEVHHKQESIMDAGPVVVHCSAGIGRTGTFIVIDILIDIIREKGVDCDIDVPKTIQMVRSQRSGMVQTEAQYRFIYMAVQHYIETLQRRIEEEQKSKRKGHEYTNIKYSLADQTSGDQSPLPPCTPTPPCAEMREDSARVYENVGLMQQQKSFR", "test": "SHP2 phosphatase inhibition, dose response, selectivity assay for STEP inhibitor project, biochemical (AID 602367)", "type": "functional", "conditions": "read-out: IC50_Mean"}, "Protein Wnt-3a": {"target": "Protein Wnt-3a (Mus musculus, UniProt P27467)", "sequence (P27467 whole entry)": "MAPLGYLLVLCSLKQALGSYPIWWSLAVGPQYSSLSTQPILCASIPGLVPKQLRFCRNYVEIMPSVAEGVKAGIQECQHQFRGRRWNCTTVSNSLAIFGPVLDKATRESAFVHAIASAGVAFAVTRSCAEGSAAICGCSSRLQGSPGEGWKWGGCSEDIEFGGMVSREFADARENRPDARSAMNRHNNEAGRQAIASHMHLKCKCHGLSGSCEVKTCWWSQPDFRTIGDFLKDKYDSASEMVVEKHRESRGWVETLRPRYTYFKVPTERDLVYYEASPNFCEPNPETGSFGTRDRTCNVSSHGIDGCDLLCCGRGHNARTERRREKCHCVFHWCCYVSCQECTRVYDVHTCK", "test": "Wnt3a-driven reporter signaling inhibition, dose response, selectivity assay for Gli-SUFU antagonist project, Wnt-LIGHT cells, luminescence (AID 651570);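 also: Wnt-LIGHT reporter cells stimulated with conditioned medium from Wnt3a-producing cells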", "type": "functional", "conditions": "read-out: IC50_Mean"}, "Streptococcus": {"test_system": "Streptococcus", "test": "Group A Streptococcus viability loss, dose response, counter-screen for streptokinase expression inhibitor project, luminescence, BacTiterGlo (AID 1915);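 also: potency for reduction of bacterial viability or growth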", "type": "functional, organism-based"}, "Streptokinase A": {"target": "T3, Streptokinase A (Streptococcus pyogenes serotype M1, UniProt P10520)", "T3 sequence (P10520 whole entry)": "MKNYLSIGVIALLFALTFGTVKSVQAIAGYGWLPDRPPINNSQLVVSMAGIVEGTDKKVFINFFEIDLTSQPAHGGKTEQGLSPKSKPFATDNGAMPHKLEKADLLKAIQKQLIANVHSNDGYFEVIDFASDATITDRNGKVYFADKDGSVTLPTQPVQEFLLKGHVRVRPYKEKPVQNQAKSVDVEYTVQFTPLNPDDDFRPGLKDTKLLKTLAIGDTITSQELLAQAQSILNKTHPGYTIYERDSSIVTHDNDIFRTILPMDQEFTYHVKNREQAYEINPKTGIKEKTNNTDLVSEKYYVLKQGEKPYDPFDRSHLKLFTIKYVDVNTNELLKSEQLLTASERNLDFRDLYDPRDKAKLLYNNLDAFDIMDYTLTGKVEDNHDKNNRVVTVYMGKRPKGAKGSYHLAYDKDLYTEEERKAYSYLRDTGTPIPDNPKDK", "test": "S. pyogenes streptokinase expression inhibitors, potency, dose response, plasminogen activation absorbance, OD405 (AID 1914);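 also: secreted streptokinase activity via plasminogen activation per viability signal from cell pellet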", "type": "functional, Streptococcus pyogenes M1 GAS"}, "[11]": {"test_system": "Streptococcus sp. 'group A'", "test": "growth inhibition of control SK(-) GAS strain, dose response, counter-screen for streptokinase expression inhibitor project, luminescence, kanamycin, BacTiterGlo, confirmation (AID 1900)", "type": "functional, organism-based"}},
  "note": "The source made the active and inactive calls.",
  "data": [
    {"smiles": "CCS(=O)(=O)c1ncc(Cl)c(C(=O)Nc2ccc(S(=O)(=O)N3CCCC(C)C3)cc2)n1", "note": "(configuration not stated)", "values": [
      {"measurement": "EC50", "setting": "[1]", "value": "2.25 µM (active)"},
      {"measurement": "AC50", "setting": "Paired box protein Pax-8", "value": "5.34 µM (active)"},
      {"measurement": "EC50", "setting": "Beta-galactosidase", "value": "> 40 µM (inactive)"},
      {"measurement": "IC50", "setting": "[2]", "value": "2.18 µM (active)"},
      {"measurement": "IC50", "setting": "Large T antigen", "value": "62.8 µM (active)"},
      {"measurement": "EC50", "setting": "[3]", "value": "3.48 µM (active)"},
      {"measurement": "AC50", "setting": "[4]", "value": "9.33 µM (active)"},
      {"measurement": "AC50", "setting": "[5]", "value": "3.95 µM (active)"},
      {"measurement": "AC50", "setting": "[6]", "value": "< 0.26 µM (active)"},
      {"measurement": "IC50", "setting": "[7]", "value": "> 64.6 µM (inactive)"},
      {"measurement": "AC50", "setting": "INS1", "value": "4.76 µM (active)"},
      {"measurement": "IC50", "setting": "Melanocortin receptor 4", "value": "> 0.797 µM (active)"}
    ]},
    {"smiles": "COC(=O)c1ccccc1CSc1nsc(/C=C/N(C)C)c1C#N", "values": [
      {"measurement": "IC50", "setting": "[8]", "value": "1.29 µM (active)"},
      {"measurement": "IC50", "setting": "[9]", "value": "14.5 µM (active)"},
      {"measurement": "AC50", "setting": "Caspase-6", "value": "34.5 µM (active)"},
      {"measurement": "IC50", "setting": "[10]", "value": "2.38 µM (active)"}
    ]},
    {"smiles": "CCC(C)CCN1C(N(C)C)=NC[C@@H]1CC(C)C", "note": "(some centres not stated)", "values": [
      {"measurement": "IC50", "setting": "Protein Wnt-3a", "value": "6.72 µM (active)"}
    ]},
    {"smiles": "COC(=O)c1cc(S(=O)(=O)n2nc(C)c(Br)c2C)c(Cl)cc1Cl", "values": [
      {"measurement": "EC50", "setting": "Streptococcus", "value": "10.4 µM (active)"},
      {"measurement": "EC50", "setting": "Streptokinase A", "value": "> 150 µM (not active)"},
      {"measurement": "IC50", "setting": "[7]", "value": "> 64.6 µM (inactive)"},
      {"measurement": "EC50", "setting": "[11]", "value": "1.8 µM (active)"},
      {"measurement": "IC50", "setting": "Melanocortin receptor 4", "value": "> 64.6 µM (inactive)"}
    ]}
  ]
}
